Source: US9115213B2, “Phenotypic reversion of pancreatic carcinoma cells” (The Research Foundation of State University of New York, priority 2004, dated 2015)
“Also recorded” adds a separate entry of the source. Where two headings read alike, the source gives them in different places. Each block holds one compound with its values, some of them ahead of it. Where a SMILES comes first, the peptide text is derived from it.

How the values were obtained:
BMRPA1 cells = conditions: cited from earlier work
[1] = molecular target: T1, oncogenic ras-p21 (Val 12-p21) (Homo sapiens, UniProt P01112, G12V); conditions: cited from earlier work
T1 construct: host or cells: microinjected into Xenopus laevis oocytes

TUC-3 cells [2] = conditions: cited from earlier work
[3] = test system: insulin-activated wild-type ras-p21; conditions: cited from earlier work
[4] = molecular target: Val 12-p21-JNK interaction (Homo sapiens, UniProt P01112, G12V); conditions: cited from earlier work
[5] = molecular target: T1, oncogenic ras-p21 (Val 12-p21); experiment: Val 12-p21-induced oocyte maturation; assay type: cell-based, Xenopus laevis; conditions: peptide injected together with Val 12-p21
[6] = test system: ras-transformed pancreatic cancer (TUC-3) cells; experiment: Peptide incubation with TUC-3 cells (morphology, phenotypic reversion); assay type: cell-based, rat
[7] = test system: BMRPA1 pancreatic acinar cells; experiment: Peptide incubation with normal BMRPA1 cells
Text: As described in several prior publications (16, 17, 20), we have developed two cell lines, one a normal contact-inhibited line of rat pancreatic acinar cells, called BMRPA1.430 (BMRPA1) cells and the other a pancreatic acinar carcinoma obtained by transfection of BMRPA1 cells with a plasmid containing an activated human K-ras oncogene [single base mutation at codon 12, valine substitution for the wild type glycine in the ras protein (K-ras^val12); a kind gift of Dr. M. Perucho (CIBR, La Jolla, Calif.)] and a neomycin resistance gene. […] In addition, they phenotypically maintain differentiated cell functions such as continued enzyme production and activation of zymogen secretion by secretagogue.
Approximately 300,000 cells (either BMRPA1 or TUC-3) were plated in each of six wells and were allowed to adhere overnight. In one set of experiments, the initial media consisted of DMEM with 10% fetal bovine serum that contained no peptide. In another set of experiments, the initial media contained peptide. In the first set, media containing peptide was added after 24 hours; in both sets, after the first 24 hours, the media was changed every 24 hours and always contained peptide at a particular concentration. Cells were observed daily for three weeks for changes in morphology and growth characteristics. Peptides were present at concentrations of […].

Val 12-Ha-ras-p21 = molecular target: T2, Val 12-Ha-ras-p21 (Homo sapiens, UniProt P01112, G12V); experiment: Co-immunoprecipitation of raf, MEK, JNK and MAPK with injected Val 12-Ha-ras-p21 in oocytes; assay type: cell-based, Xenopus laevis; conditions: peptide co-injected with Val 12-p21 into oocytes; anti-Ha-ras immunoprecipitate (FIG. 4A)
T2 construct: host or cells: protein microinjected into Xenopus laevis oocytes
Method: In these experiments, the Ha-ras form of Val 12-p21 was injected into oocytes (100 ug/ml, 50 nl per oocyte) either alone or together with inhibitory p21 peptide (residues 96-110 shown in this figure). […] The lysate was centrifuged for 15 min at 17000×g at 4° C., and the supernatant was either used directly. The lysates were then subjected to immunoprecipitation using an anti-Ha-ras antibody (CalBiochem). In this procedure, cell lysate was first pre-cleared by incubation with 50 ul of protein A beads for 1 hr at room temperature, followed by centrifugation. Anti-Ha-ras antibody was added to the lysate such that 0.1 ug antibody was added per 250 ug of pre-cleared lysate protein. A volume of 25 μl protein A agarose beads (Sigma) was then added to the incubation mixture, and the resulting mixture was incubated overnight at 4° C., after which the mixture was centrifuged, and the immunoprecipitate was washed three times with 0.5 ml of kinase buffer as described above. Immunoprecipitates were subjected to SDS-PAGE as described above in the preceding paragraph and blotted with anti-Ha-ras (1:2000 with 0.25% BSA), anti-raf (CalBiochem, San Diego, Calif.), diluted 1:2000 with 0.25% BSA, anti-JNK polyclonal antibody (1:2000), anti-MEK (CalBiochem) and anti-MAPK, diluted 1:2000 with 0.25% BSA. […]

TUC-3 cells [8] = experiment: Explantation of peptide-treated, morphologically revertant TUC-3 cells into nude mice; assay type: in vivo, Nu/Nu mice; conditions: for Tumor Nodule Size: 5 × 10^6 TUC-3 cells treated 2 weeks with peptide, posterior cervical fat pad, 5 nude mice, mean ± SD
Method: To evaluate cells that appeared to be morphologically revertant to the normal phenotype, approximately 5×10^6 morphologically revertant TUC-3 cells treated for two weeks with 100 μg/ml of PNC-2 were injected subcutaneously into the posterior cervical fatpad of each of five Nu/Nu mice. Similarly, 5×10^6 untreated TUC-3 cells were explanted into another five Nu/Nu mice. Daily observations, over a 120 day period, were made on both sets of mice to determine if tumor nodules appeared at the site of injection.

Compound: CO[C@@H]1[C@H](N(C)C(=O)c2ccccc2)C[C@H]2O[C@]1(C)n1c3ccccc3c3c4c(c5c6ccccc6n2c5c31)C(=O)NC4 [CGP 41 251]
- cytotoxicity to BMRPA1 cells (BMRPA1 cells): cytotoxic to BMRPA1 cells
- oncogenic ras-p21-induced oocyte maturation / mitogenic signaling in oocytes [1]: blocks oncogenic ras-p21-induced oocyte maturation
- effect on TUC-3 cells (TUC-3 cells [2]): induces both necrosis and phenotypic reversion of TUC-3 cells
- growth of revertant TUC-3 cells in soft agar (TUC-3 cells [2]): fail to grow in soft agar
- insulin-activated wild-type ras-p21-induced oocyte maturation / signaling [3]: much less effect

- Val 12-p21-induced oocyte maturation [5]: strongly inhibits maturation
Compound: YREQIKRVKDSDDVP (YREQIKRVKDSDVP; amino acid residues 96-110 of oncogenic ras-p21 protein) [PNC-2]
- interferes with / blocks Val 12-p21-JNK interaction [4]: blocks oncogenic ras-p21-JNK interactions; also recorded: blocks the interaction of Val 12-p21 with JNK; also recorded: interferes with Val 12-p21-JNK interaction
- phenotypic reversion of TUC-3 cells [6]: 100%
- oncogenic ras-p21-induced oocyte maturation / mitogenic signaling in oocytes [1]: block mitogenic signaling by oncogenic ras-p21 in oocytes; also recorded: block oncogenic ras-induced oocyte maturation
- cytotoxicity [7]: lack of cytotoxicity
- effect on growth of BMRPA1 cells [7]: no apparent effects
- co-precipitation of raf, MEK, JNK and MAPK with Val 12-ras-p21 (Val 12-Ha-ras-p21): none of these proteins precipitated with Val 12-ras-p21 although there is still some binding to raf
- Tumor Nodule Size (TUC-3 cells [8]; day 0): 0.0 mm
- Tumor Nodule Size (TUC-3 cells [8]; day 7): 0.0 mm
- Tumor Nodule Size (TUC-3 cells [8]; day 14): 0.0 mm
- Tumor Nodule Size (TUC-3 cells [8]; day 21): 0.0 mm
- Tumor Nodule Size (TUC-3 cells [8]; day 28): 0.0 mm
- Tumor Nodule Size (TUC-3 cells [8]; day 42): 0.0 mm
- Tumor Nodule Size (TUC-3 cells [8]; day 56): 0.0 mm
- insulin-activated wild-type ras-p21-induced oocyte maturation / signaling [3]: little effect; also recorded: do not block insulin-activated wild type ras-induced maturation

Compound: N[C@@H](Cc1ccc(O)cn1)C(=O)O [azatyrosine, reference compound]
- oncogenic ras-p21-induced oocyte maturation / mitogenic signaling in oocytes [1]: selectively blocks oncogenic ras-p21-induced oocyte maturation

Compound: PNC-7-leader: ras-p21 residues 35-47 (TIEDSYRKQVVID, SEQ ID NO:2) with penetratin leader KKWKMRRNQFWVKVQRG attached to its carboxyl terminal end (TIEDSYRKQVVIDKKWKMRRNQFWVKVQRG; peptide amino acid residues 35-47 of oncogenic ras-p21 protein)
- phenotypic reversion of TUC-3 cells ([6]; 100 and 200 ug/ml (FIG. 2C: two weeks)): phenotypic reversion of the cells
- concentration at which complete reversion of TUC-3 cells was achieved ([6]; after two weeks of incubation): ≥ 100 µg/mL

Compound: PNC-2-leader: ras-p21 residues 96-110 (SEQ ID NO:1) with penetratin leader KKWKMRRNQFWVKVQRG attached to its carboxyl terminal end (YREQIKRVKDSDVPKKWKMRRNQFWVKVQRG; amino acid residues 96-110 of oncogenic ras-p21 protein)
- lowest concentration at which the morphological reversion of TUC-3 cells was achieved [6]: 1 ug/ml
- phenotypic reversion of TUC-3 cells ([6]; 1 ug/ml, after two weeks): complete phenotypic reversion
- change in cell morphology of TUC-3 cells ([6]; 100 μg/ml, 1 week (FIG. 2A)): the cells grow into contact-inhibited monolayers and show distinct cell boundaries
- phenotypic reversion of TUC-3 cells ([6]; after one day of treatment (FIG. 2B: 100 μg/ml)): foci of acinar cellular differentiation appear
- tumor formation by morphologically revertant TUC-3 cells in nude mice (TUC-3 cells [8]; cells treated two weeks with 100 ug/ml peptide, explanted subcutaneously): fail to form tumors up to two months after reversion

- effect on growth of BMRPA1 cells [7]: no apparent effects
Compound: CC[C@H](C)[C@H](NC(=O)[C@@H](NC(=O)[C@@H](NC(=O)[C@H](CCC(N)=O)NC(=O)[C@H](CCCCN)NC(=O)[C@H](CCCNC(=N)N)NC(=O)[C@H](Cc1ccc(O)cc1)NC(=O)[C@H](CO)NC(=O)[C@H](CC(=O)O)NC(=O)[C@H](CCC(=O)O)NC(=O)[C@@H](NC(=O)[C@@H](N)[C@@H](C)O)[C@@H](C)CC)C(C)C)C(C)C)C(=O)N[C@@H](CC(=O)O)C(=O)O [PNC-7, TIEDSYRKQVVID] (H-TIEDSYRKQVVID-OH)
- cytotoxicity [7]: lack of cytotoxicity

- effect on morphology of BMRPA1 cells [7]: no effect
Compound: CC[C@H](C)[C@H](NC(=O)[C@H](CCCNC(=N)N)NC(=O)[C@H](CCCCN)NC(=O)CNC(=O)[C@@H](NC(=O)[C@H](CO)NC(=O)[C@H](Cc1ccccc1)NC(=O)[C@@H]1CCCN1C(=O)[C@@H](N)CCSC)[C@@H](C)O)C(=O)N[C@@H](CCSC)C(=O)N[C@@H](CC(C)C)C(=O)NCC(=O)N[C@@H](CCC(=O)O)C(=O)N[C@@H](CCCCN)C(=O)N[C@@H](CCCCN)C(=O)N[C@@H](Cc1c[nH]c2ccccc12)C(=O)N[C@@H](CCCCN)C(=O)N[C@@H](CCSC)C(=O)N[C@@H](CCCNC(=N)N)C(=O)N[C@@H](CCCNC(=N)N)C(=O)N[C@@H](CC(N)=O)C(=O)N[C@@H](CCC(N)=O)C(=O)N[C@@H](Cc1ccccc1)C(=O)N[C@@H](Cc1c[nH]c2ccccc12)C(=O)N[C@H](C(=O)N[C@@H](CCCCN)C(=O)N[C@H](C(=O)N[C@@H](CCC(N)=O)C(=O)N[C@@H](CCCNC(=N)N)C(=O)NCC(=O)O)C(C)C)C(C)C [X13-leader, reference compound]
